Measured values reported in patent US20110086813A1, “COMPOUNDS FOR TREATING BACTERIAL INFECTIONS” (priority 2008, published 2011).

How the values were obtained:
[1] = biological target: T1, Relseq from Gram Positive Streptococcus equisimils (Streptococcus dysgalactiae subsp. equisimilis, UniProt Q54089); test: In vitro (p)ppGpp accumulation, Relseq synthetic activity; assay type: biochemical; details: figure only
T1 construct: made in house; host or cells: deltaRelA E. coli cells, IPTG induced
Protocol: (§1) Starters of deltaRelA E. coli cells, expressing one of the following proteins (RelA, RelA638 or Relseq385) in trans, were grown overnight at 37° C. The next day, the starters were diluted 1:50 in 400 ml LBamp and the cells have continued to grow at 37° C. until they reached O.D600=˜0.6. Then, the cells were added with IPTG (1 mg/ml) and the cells were grown at the same conditions for additional 2-3 h. After that the cells were harvested for 10 min at 4000 rpm and the pellet was frozen at −80° C.
(§2) • Lysis of the pellet using “Lysis Buffer” containing Lysozyme (3 mg/ml) and ½ pill of Complete (EDTA-free). • Sonication on ice for 3.5 min. • Centrifuge the cells for 10 min at 10000 rpm. • Mix the supernatant with Ni-NTA bids for 1 h at 4° C. • Load the bids on a column and wash it with “Wash Buffer”. • Elute the protein using “Elution Buffer”.
(§3) The elution fractions were run on 12% Acryl/Bis gel and the fractions containing the most protein were taken to dialysis (two times overnight at 4° C.). After dialysis the concentration of the protein was determined using Bradford Reagent (O.D595).
(§4) In Vitro (p)ppGpp Accumulation:
(§5) 2.5 mM GTP, 20 mM ATP, 200 mM Tris HCl pH7.4, 5 mM DTT, 50 mM MgCl2
(§6) 50 mM KCl, 135 mM (NH4)2SO4, α-^32P GTP (0.1 μl per reaction), DDW
(§7) Once the buffer is added together with 1 μg of protein, 0-10 mM of inhibitor and 30 μg of ribosomes (in a total volume of 20 μl) the following reaction occurs: GTP/GDP+ATP→(p)ppGpp.
(§8) The reactions are incubated at room temperature for a period of 10-90 minutes. Then, the reactions are stopped by the addition of 5 μl of Formic acid. Once the reactions were stopped, they were placed on ice until 5 μl of each reaction were loaded on Cellulose PEI (Merck) and ran for 2 hours in 1.5M KH2PO4. The PEI was read, using image reader-1000 V1.8 and the data was analyzed by TINA 2.0 software.

[2] = biological target: T2, Gram Negative E. coli RelA (Escherichia coli, UniProt P0AG20); test: In vitro (p)ppGpp accumulation, RelA synthetic activity; assay type: biochemical; details: figure only
T2 construct: made in house; host or cells: deltaRelA E. coli cells, IPTG induced
Protocol: as §1, §2, §3, §4, §5, §6, §7, §8

[3] = presented as % inhibition vs. compound concentration
[4] = presented as pmol (p)ppGpp per mg RelA vs. compound concentration, 0-10 mM inhibitor
[5] = separate experiment, presented as % inhibition vs. compound concentration

T2 sequence (P0AG20 whole entry): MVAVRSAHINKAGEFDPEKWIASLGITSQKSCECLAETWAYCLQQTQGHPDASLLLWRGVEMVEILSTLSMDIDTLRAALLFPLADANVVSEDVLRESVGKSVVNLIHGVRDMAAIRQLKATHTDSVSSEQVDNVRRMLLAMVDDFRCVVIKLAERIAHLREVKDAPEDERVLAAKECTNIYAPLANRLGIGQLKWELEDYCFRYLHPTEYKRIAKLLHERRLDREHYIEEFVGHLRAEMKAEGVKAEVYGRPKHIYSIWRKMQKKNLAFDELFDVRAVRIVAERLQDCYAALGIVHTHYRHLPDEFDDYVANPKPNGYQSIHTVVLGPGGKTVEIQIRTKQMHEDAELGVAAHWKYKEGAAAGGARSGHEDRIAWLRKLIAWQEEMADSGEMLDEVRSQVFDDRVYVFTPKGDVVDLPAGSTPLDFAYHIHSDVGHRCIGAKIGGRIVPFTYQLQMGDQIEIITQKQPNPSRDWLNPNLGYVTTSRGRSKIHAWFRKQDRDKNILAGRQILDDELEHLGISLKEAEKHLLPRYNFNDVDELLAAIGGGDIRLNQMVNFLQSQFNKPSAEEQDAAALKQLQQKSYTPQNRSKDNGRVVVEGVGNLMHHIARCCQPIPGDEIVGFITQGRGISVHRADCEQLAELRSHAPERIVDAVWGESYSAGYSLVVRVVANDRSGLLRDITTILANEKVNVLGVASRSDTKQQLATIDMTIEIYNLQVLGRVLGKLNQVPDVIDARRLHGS
T1 sequence (Q54089 1-385): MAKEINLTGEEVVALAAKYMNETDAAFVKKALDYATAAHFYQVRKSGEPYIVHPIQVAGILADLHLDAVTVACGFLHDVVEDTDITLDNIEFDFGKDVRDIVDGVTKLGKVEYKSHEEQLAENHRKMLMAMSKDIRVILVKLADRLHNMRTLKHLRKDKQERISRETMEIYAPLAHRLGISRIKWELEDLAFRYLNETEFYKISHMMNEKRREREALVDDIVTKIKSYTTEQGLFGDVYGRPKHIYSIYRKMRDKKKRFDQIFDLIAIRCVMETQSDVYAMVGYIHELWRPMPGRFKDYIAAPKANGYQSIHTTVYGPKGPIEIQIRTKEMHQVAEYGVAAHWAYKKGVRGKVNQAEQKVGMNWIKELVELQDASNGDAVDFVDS

| Structure (SMILES) | inhibitory effect on Relseq synthetic activity in vitro [1, 3] | inhibitory effect on RelA synthetic activity in vitro [2, 4] | inhibitory effect on RelA synthetic activity in vitro [2, 5] | inhibitory effect on Relseq synthetic activity in vitro ([1]; presented as pmol (p)ppGpp per mg Relseq vs. compound concentration) |
| --- | --- | --- | --- | --- |
| Nc1nc2c(ncn2[C@@H]2O[C@H](COP(=O)(O)CP(=O)(O)O)C(O)C2O)c(=O)[nH]1 (stereo partly drawn) [Compound A1] | inhibitory effect | inhibitory effect | inhibitory effect | – |
| Nc1nc2c(ncn2[C@@H]2O[C@H](COP(=O)(O)CP(=O)(O)O)C(OP(=O)(O)CP(=O)(O)O)C2O)c(=O)[nH]1 (stereo partly drawn) [Compound D1c] | inhibitory effect | – | inhibitory effect | – |
| Nc1nc2c(ncn2[C@@H]2O[C@H](COP(=O)(O)CP(=O)(O)O)C(O)C2OP(=O)(O)CP(=O)(O)O)c(=O)[nH]1 (stereo partly drawn) [Compound D2b] | inhibitory effect | – | inhibitory effect | – |
| CC(C)C(=O)Nc1nc2c(ncn2C2OC(COP(=O)(O)CP(=O)(O)O)C(O)C2OP(=O)(O)CP(=O)(O)O)c(=O)[nH]1 (stereo not drawn) [Compound D2c] | – | – | inhibitory effect | – |
| Nc1nc2c(ncn2[C@H]2CC(OP(=O)(O)CP(=O)(O)O)[C@@H](COP(=O)(O)CP(=O)(O)O)O2)c(=O)[nH]1 (stereo partly drawn) [Compound D3, 5′,3′-O-di-[methylene-(bisphosphonate)]-2′-deoxyguanosine] | inhibitory effect | inhibitory effect | inhibitory effect | inhibitory effect |
| CC(C)C(=O)Nc1nc2c(ncn2C2OC(COP(=O)(O)CP(=O)(O)O)C(O[Si](C)(C)C(C)(C)C)C2OP(=O)(O)CP(=O)(O)O)c(=O)[nH]1 (stereo not drawn) [Compound D6] | – | inhibitory effect | inhibitory effect | – |
| CC(C)C(=O)Nc1nc2c(ncn2C2OC(COP(=O)(O)CP(=O)(O)O)C(OP(=O)(O)CP(=O)(O)O)C2O[Si](C)(C)C(C)(C)C)c(=O)[nH]1 (stereo not drawn) [Compound D7] | – | inhibitory effect | inhibitory effect | – |
| CC(C)C(=O)Nc1nc2c(ncn2C2OC(COP(=O)(O)CP(=O)(O)O)C(OP(=O)(O)CP(=O)(O)O)C2O)c(=O)[nH]1 (stereo not drawn) [Compound D8] | – | inhibitory effect | inhibitory effect | – |
| CC1(C)OC2C(COP(=O)(O)CP(=O)(O)O)OC(n3cnc4c(=O)[nH]c(N)nc43)C2O1 (stereo not drawn) [Compound E3b] | inhibitory effect | inhibitory effect | inhibitory effect | – |
